Test results: patent US10596223B2, “JNK inhibitor molecules for treatment of various diseases” (Xigen Inflammation Ltd., priority 2011, dated 2020)
Square brackets hold non-standard residues; d marks the D form. Peptide text beside a SMILES is read from it.

Legend:
primary human T-cells = assay: IL2 secretion by primary human T-cells; assay type: cell-based
Excerpt: The JNK inhibitors used are indicated by their SEQ ID NO: 172 and 197.

[1] = test system: THP1-PMA-differentiated macrophages; assay: LPS-induced cytokine and chemokine release in PMA differentiated THP1 macrophages (ELISA); assay type: cell-based, human
Method: In the following the procedure will be set forth describing how the released amount of several human cytokines after ligand induced secretion from human cells (Blood, WBC, PBMC, purified primary lymphocytes, cell lines, . . . ) was measured.
The technique used is a Sandwich ELISA, which allows measuring the amount of antigen between two layers of antibodies (i.e. capture and detection antibody). The antigen to be measured must contain at least two antigenic sites capable of binding to antibody, since at least two antibodies act in the sandwich. Either monoclonal or polyclonal antibodies can be used as the capture and detection antibodies in Sandwich ELISA systems. Monoclonal antibodies recognize a single epitope that allows fine detection and quantification of small differences in antigen. A polyclonal is often used as the capture antibody to pull down as much of the antigen as possible.
The method may be used to determine the effect of the JNK inhibitors of the present invention in vitro/cell culture. At non toxic doses, compound efficacy is indicated by the decrease of the cytokine levels (the variation of optical density (absorbance at 450 nm)) as compared to non-treated samples and is monitored by ELISA. Results are express in ng/ml.
In the following the procedure will be set forth describing how cytokine production from human PMA differentiated THP1 cells challenged by LPS for 6 h was induced in order to test the ability of JNK inhibitors of the present invention, in particular of a JNK inhibitor with SEQ ID NO: 172, to reduce stimulation-induced cytokine release. THP1 cells were stimulated ex-vivo by different ligands for the readout of cytokine release. At non toxic doses, JNK inhibitor efficacy is indicated by the decrease of the cytokine levels as compared to non-treated samples and is monitored by ELISA. The toxicity of the compound are evaluated by the reduction of a tretazolium salt (MTS) to formazan, giving a purple colour.
a. Material • Cell Line: THP-1 (Ref TIB-202, ATCC, lot 57731475) • Culture medium, reagent and plates • RPMI (Ref 21875-091, Invitrogen) complemented with: • 10% FBS (Ref A15-151, PAA): decomplemented at 56° C., 30 min. • 10 mM Hepes (Ref H0887, Sigma) • 50 μM β-mercaptoethanol (Ref 63690, Fluka: stock at 14.3M): add 560 μl of 50 mM aliquots in PBS stocked at −20° C.) • 1 mM Sodium Pyruvate (Ref 58636, Sigma) • Penicilline (100 unit/ml)/Streptomycine (100 μg/ml) (Ref P4333, Sigma) • The RPMI medium is then filtrated with a […] (Ref SCGPU05RE, Millipore). • PBS 10× (Ref 70011, Invitrogen): diluted to 1× with sterile H2O • DMSO: Ref 41444, Fluka • PMA (phorbol 12-myristate 13-acetate, Ref P1585, Sigma, concentration 1 mM=616.8 ug/ml in DMSO at −20° C.). […]

[2] = THP1 differentiated macrophages, LPS 6 h (10 ng/ml)

For CC(C)C[C@H](NC(=O)[C@H](CC(N)=O)NC(=O)[C@H](CC(C)C)NC(=O)[C@@H](NC(=O)[C@@H](C)NC(=O)[C@@H]1CCCN1C(=O)[C@H](CCCNC(=N)N)NC(=O)[C@@H](CCCCN)NC(=O)[C@@H]1CCCN1C(=O)[C@H](CCCNC(=N)N)NC(=O)[C@@H](CCCNC(=N)N)NC(=O)[C@H](CCCNC(=N)N)NC(=O)[C@H](CCCNC(=N)N)NC(=O)[C@H](CCC(N)=O)NC(=O)[C@@H](CCCNC(=N)N)NC(=O)[C@H](CCCNC(=N)N)NC(=O)[C@H](CCCCN)NC(=O)[C@H](CCCCN)NC(=O)[C@H](N)CCCNC(=N)N)[C@@H](C)O)C(=O)N[C@H](Cc1ccccc1)C(N)=O [SEQ ID NO: 172, rKKRrQRRrRPkRPaTLNLf] (H-[dR]KKR[dR]QRR[dR]RP[dK]RP[dA]TLNL[dF]-NH2; N-terminus assumed), the “IL2 secretion in response to CD3/CD28 stimulation” value (primary human T-cells) was “blocks IL2 secretion”, the “IL2 secretion in response to PMA/Ionomycin” value (primary human T-cells) was “blocks IL2 secretion” and the “LPS-induced TNFα release, potency comparison” value ([1]; PMA differentiated macrophages) was “higher potency than D-TAT-IB1 (SEQ ID NO: 197) and L-TAT-IB1 (SEQ ID NO: 196)”. For the same compound, the “LPS-induced IL-6 release, potency comparison” value ([1]; PMA differentiated macrophages, LPS 6 h) was “higher potency than D-TAT-IB1 (SEQ ID NO: 197) and L-TAT-IB1 (SEQ ID NO: 196)”, the “LPS-induced IL6 release, potency comparison” value [1, 2] was “higher potency than D-TAT-IB1 (SEQ ID NO: 197), dTAT (SEQ ID NO: 45) and SP 600125” and the “LPS-induced TNFα release, potency comparison” value [1, 2] was “higher potency than D-TAT-IB1 (SEQ ID NO: 197), dTAT (SEQ ID NO: 4.5) and SP 600125”.
